According to patent US8258175B2, “Isoindolin-1-one derivatives” (Cancer Research Technology Limited, priority 2004, dated 2012):
Where no end group is shown, it is not given here.

What was measured:
MDM2-p53 interaction [1] = biological target: T1, MDM2-p53 interaction (Homo sapiens, UniProt Q00987); experiment: Preliminary screening, in vitro MDM2-p53 binding assay; settings: preliminary screening studies; read-out: IC50 (inhibition of the MDM2-p53 interaction)
T1 construct: made in house; host or cells: in vitro translation (cell-free)
Excerpt: Studies of the p53 binding pocket on the MDM2 protein guided the nature of the molecules synthesised. Thus the present invention provides small molecule inhibitors of MDM2-p53 interaction based on an isoindolinone scaffold.

MDM2-p53 interaction [2] = biological target: T1, MDM2-p53 interaction; experiment: ELISA assay of MDM2-p53 complex formation (MDM2 binding to immobilised IP3 p53-derived peptide); settings: n=3 independent determinations; 5% DMSO; interpolated from three standard concentrations
Protocol: Streptavidin-coated 96-well plates are used to immobilise a biotin-tagged IP3 p53-derived peptide ([…]). This is a peptide analogue derived from the p53 binding site for MDM2 ([…]). […] Aliquots of MDM2 generated by in vitro translation are pre-incubated for 20 minutes at room temperature (i.e. 20-25° C.) with test compounds and controls, before transfer into the IP3-coated 96-well plates. Following a further incubation period of 90 minutes at 4° C., the plates are washed to remove unbound MDM2 and the residual bound MDM2 is detected using a primary monoclonal antibody (MDM2 Ab-1, clone IF2, Oncogene Research Products) and HRP-conjugated secondary antibody (Goat anti-mouse, Dako PO447). The HRP (horseradish peroxidase) is measured by a chemiluminescence reaction using standard reagents (Amersham Pharmacia™ RPN 2106) and an automatic injection 96-well plate illuminometer (EG & G Berthold Microplate LB 96V).
Compound NU8231 is currently included as a standard “lead compound” positive control. […] The AP peptide is included as a positive control for biological evaluation of the isoindolinones in the cell free binding assays.
All compounds are dissolved in DMSO and tested at three standard concentrations (initially 20 μM, 100 μM and 500 μM) in the presence of a fixed final concentration of 5% DMSO. The percentage inhibition of complex formation is expressed relative to a DMSO only control and an IC50, defined as the concentration required for 50% inhibition of MDM2-p53 complex formation, determined by interpolation.

[3] = tested on: SJSA cells (MDM2 amplified); experiment: Western blot of SJSA cells treated with compound; format: cell-based; settings: SJSA cells, 5, 10 and 20 μM, lysed at 6 hours
Protocol: Osteosarcoma cell line SJSA-1 was plated out in 55 mm dishes at a density of 2.5×10^5 cells in 3 mL of RPMI 1640 medium (Sigma) supplemented with 10% foetal bovine serum (FBS, Gibco), 1% (v/v) HEPES (Gibco), 1% (v/v) sodium pyruvate (Gibco) and 1.25 g/500 ml glucose (Sigma) for 48 hours in a 37° C. humidified incubator (Sanyo, MCO 20AIC) at a CO2 concentration of 5%.
The dishes were treated with NU8231 at a final concentration of 5, 10, and 20 μM (at 1% DMSO) together with a 1% DMSO and an untreated control sample for 6 hours. The medium was then aspirated and the dishes were washed with 3 mL of cold PBS. The cells were then lysed in 40 μL of Sodium Dodecyl Sulphate (SDS, Sigma) lysis buffer, boiled at 100° C. for 10 minutes before sonication for 3×5 seconds at 20 microns (Soniprep 150, MSE).
The protein concentration for each of the samples was then determined using BCA Protein Assay Kit (Pierce), and 1:1 loading buffer consisting of β-mercaptoethanol (Sigma) and 0.5% bromophonol-blue (Sigma) were added to 40 μg of protein and made up to a final volume of 30 μL and boiled for 5 minutes at 100° C.
The samples were then loaded onto a precast 4-20% gradient polyacrylamide Tris-Glycine gels (15 wells, 1.5 mm thickness, Invitrogen Life Technologies), along with a pre-stained marker protein (SeeBlue, Invitrogen). The Gels were processed in Novex XCell (Invitrogen) at 180V and blotted onto a High Bond C membrane (Amersham Life Science) overnight at 30V.
The membrane was then blocked for one hour at room temperature in TBS-Tween containing 5% non-fat milk (TBST-M) followed by incubation with primary antibodies for MDM2 (MDM2-Ab1, 1:500, Oncogene), p53 (p53-D07, 1:1000, Novacastra), p21 (p21 Ab1, 1:100, Oncogene) and Actin (Actin AC40, 1:1000, Sigma) in PBST-M for 1 hour.
The membrane was then washed three times in TBST (15 minutes per wash) and then incubated for an additional 1 hour with a anti mouse or a rabbit horseradish peroxidase (HRP) secondary antibody (Dako, 1:1000) in PBST-M followed by a final wash consisting of six washes with TBST at 5 minutes per wash. […]

MDM2 = MDM2 (Homo sapiens, UniProt Q00987); settings: Stoll et al 2001; cited from earlier work
Sequence of MDM2 (Q00987 whole entry): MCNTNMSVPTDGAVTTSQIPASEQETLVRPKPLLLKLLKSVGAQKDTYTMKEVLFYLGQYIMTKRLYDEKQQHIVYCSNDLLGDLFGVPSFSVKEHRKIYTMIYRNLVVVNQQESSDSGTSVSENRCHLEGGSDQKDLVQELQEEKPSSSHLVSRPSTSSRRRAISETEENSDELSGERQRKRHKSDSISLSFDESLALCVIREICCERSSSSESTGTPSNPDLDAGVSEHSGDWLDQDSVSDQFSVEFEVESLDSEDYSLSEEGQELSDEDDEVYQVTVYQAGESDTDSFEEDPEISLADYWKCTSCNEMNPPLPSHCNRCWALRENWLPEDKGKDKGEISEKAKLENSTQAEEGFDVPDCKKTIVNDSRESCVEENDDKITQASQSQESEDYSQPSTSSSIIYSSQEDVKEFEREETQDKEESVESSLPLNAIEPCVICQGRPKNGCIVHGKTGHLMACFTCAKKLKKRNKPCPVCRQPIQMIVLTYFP

T1 sequence (Q00987 whole entry): as above

With `CCCOC1(c2ccccc2)c2ccccc2C(=O)N1Cc1ccccc1` (stereo not drawn) [NU8001, 2-benzyl-3-phenyl-3-propoxy isoindolin-1-one] the IC50 (MDM2-p53 interaction [1]) was roughly 200 µM.
With `CCCNC1(c2ccccc2)c2ccccc2C(=O)N1Cc1ccccc1` (stereo not drawn) [NU8006, 2-benzyl-3-phenyl-3-(propylamino)isoindolin-1-one] the IC50 (MDM2-p53 interaction [1]) was roughly 200 µM.
In the case of `CCCOC1(c2ccccc2)c2ccccc2C(=O)N1CCC` (stereo not drawn) [NU8009, 2-propyl-3-phenyl-3-propoxy isoindolinin-1-one], the IC50 (MDM2-p53 interaction [1]) is reported as roughly 200 µM.
`CCCN1C(=O)c2ccccc2C1(OCc1ccc(C(C)(C)C)cc1)c1ccccc1` (stereo not drawn) [NU8223, 3-(4-tert-Butylbenzyloxy)-3-phenyl-2-propyl-2,3-dihydroisoindolin-1-one] showed an IC50 (MDM2-p53 interaction [2]) greater than 500 µM and a melting point of 118.7 to 119.9 °C.
With `CCCN1C(=O)c2ccccc2C1(OCc1cc(OC)c(O)c(OC)c1)c1ccc(Cl)cc1` (stereo not drawn) [NU8231, 3-(4-Chlorophenyl)-3-(4-hydroxy-3,5-dimethoxybenzyloxy)-2-propyl-2,3-dihydroisoindolin-1-one] the “MDM2 level (Western blot)” value [3] was “dose dependent increase”, the “p21 level (Western blot)” value [3] was “dose dependent increase” and the “p53 levels (Western blot)” value [3] was “No change”.
For “IP3: biotin-tagged p53-derived peptide (MPRFMDYWEGLN), analogue derived from the p53 binding site for MDM2 (also: biotin tag, place not given here)”, the “affinity for MDM2 relative to the native p53 peptide” value (MDM2) is given as “higher affinity for MDM2 than the native peptide”.
